35 substances from US20100093973A1, “POLY(AMINO ACID) COMPOUND HAVING INHIBITORY ACTIVITY ON ABSORPTION OF PHOSPHORUS AND PHOSPHORUS ABSORPTION INHIBITOR” (priority 2007, published 2010) can be followed below.

In the test the test system is absorption of phosphorus. The experiment in a line: Evaluation of efficacy as phosphorus absorption inhibitors: serum radioactivity AUC (0-120 min) after oral 32P NaH2PO4 in rats, inhibitory rate. It is filed as in vivo. Conditions: rats of SD line, 32P NaH2PO4 given orally 5 min later, serum radioactivity AUC 0-120 min vs control; for Inhibitory Rate (%) of Phosphorus Absorption: oral dose 100 mg/5 mL/kg; for 50 mg/kg Inhibition (%): oral dose 50 mg/5 mL/kg. On the procedure:
Seven-week-old male rats of SD line (available from SANKYO Labo-Service Co., Ltd.), as test animals, were kept and acclimatized using the usual feed (Solid CRF-1 available from ORIENTAL Yeast Co., Ltd.) and they were used in the following tests after they were fasted overnight. Each candidate substance (synthesized compound) dissolved in distilled water for injection (Otsuka Pharmaceutical Co., Ltd.) was orally administered in a dose of 100 mg/5 mL/kg or 50 mg/5 mL/kg and after 5 minutes from the administration, 3 mg/3 mL/kg, 1 MBq/kg of an NaH2PO4 solution containing ^32P (available from PerkinElmer Company) was orally administered. Subsequently, the blood was collected with the elapse of time through the caudal vein of the test animal to thus obtain the serum thereof and the radioactivity of 40 μL of the serum was determined using a liquid scintillation counter. The inhibitory rate (%) for each candidate compound was calculated on the basis of the foregoing measured values according to the following equation: […]

As to SPM(Lys)8 Hydrochloride [Example 11], the “Inhibitory Rate (%) of Phosphorus Absorption” value (from here on “Inhibitory Rate (%)”) is on record as 44%.

In the case of “TETA(Phe-δOrnOrn)5 Hydrochloride [Example 45]”, the “50 mg/kg Inhibition (%)” value came to 76%.

In the case of “TEPA(PheOrn)5 Hydrochloride [Example 64]”, the “50 mg/kg Inhibition (%)” value came out at 87%.

For the substance “TETA[Phe-Orn(Orn)2]4 Hydrochloride [Example 51]”, the “50 mg/kg Inhibition (%)” value was 62%.

“TETA(TyrOrn)2(OrnOrn)2 Hydrochloride [Example 52]”: the “50 mg/kg Inhibition (%)” value is reported as 59) %.

With “TETA(PheDab)4 Hydrochloride [Example 63]”, the “50 mg/kg Inhibition (%)” value was found to be 73%.

With SPM(Orn)12 Hydrochloride [Example 8], the “Inhibitory Rate (%)” value is on record as 63%.

In the case of “TETA[Orn(Dab)2]4 Hydrochloride [Example 41]”, the “50 mg/kg Inhibition (%)” value is on record as 58) %.

For “TETA(OrnOrn)2(PheOrn)2 Hydrochloride [Example 50]”, the “50 mg/kg Inhibition (%)” value stood at 79%.

Take TETA[Orn(Dab)2]4 TFA Salt [Example 35]: the “50 mg/kg Inhibition (%)” value was found to be 58%.

In the case of “TAA(PheOrnOrn)3 Hydrochloride [Example 48]”, the “50 mg/kg Inhibition (%)” value amounted to 74%.

Take SPM(Orn)8 Hydrochloride [Example 22]: the “Inhibitory Rate (%)” value is recorded as 60%.

Consider SPM(Orn)2 Hydrochloride [Example 17], for which the “Inhibitory Rate (%)” value is 30%.

“TETA(Orn)2[Dab(Dab)2]2 Hydrochloride [Example 59]”: the “50 mg/kg Inhibition (%)” value is on record as 57%.

Turning to “TETA(Orn)2[Orn(Orn)2]2 Hydrochloride [Example 38]”, the “50 mg/kg Inhibition (%)” value is reported as 63) %.

“SPM(Arg)2(Lys)2 Hydrochloride [Example 19]”: the “Inhibitory Rate (%)” value was 35%.

Turning to “SPM(Lys)2(Arg)2 Hydrochloride [Example 23]”, the “Inhibitory Rate (%)” value was determined as 45%.

As to “SPM(Lys)2(Orn)2 Hydrochloride [Example 10]”, the “Inhibitory Rate (%)” value is reported as 30%.

As for “TETA(Orn)2[Orn(Orn)2]2 TFA Salt [Example 34]”, the “50 mg/kg Inhibition (%)” value came out at 63%.

For the substance “TETA(ProOrnOrn)2(OrnOrnOrn)2 Hydrochloride [Example 66]”, the “50 mg/kg Inhibition (%)” value is recorded as 56%.

As for “TETA(Phe-δOrnOrn)4 Hydrochloride [Example 40]”, the “50 mg/kg Inhibition (%)” value was found to be 76%.

On to “TETA(TyrOrn)2(OrnOrn)2 TFA Salt [Example 42]”, for which the “50 mg/kg Inhibition (%)” value was 59%.

“TAA[3,5-NH2Bz(Orn)2]3 Hydrochloride [Example 72]”: the “50 mg/kg Inhibition (%)” value is 79%.

Regarding “TETA(PheOrn(3-Ala)4 Hydrochloride [Example 68]”, the “50 mg/kg Inhibition (%)” value is recorded as 73%.

Regarding “TETA (Trp-Orn-Dab)4 Hydrochloride [Example 56]”, the “50 mg/kg Inhibition (%)” value came out at 71%.

On to “TETA(D-Phe-Orn-Orn)4 Hydrochloride [Example 55]”, for which the “50 mg/kg Inhibition (%)” value is 85%.

Turning to “TETA[PheAsp(DETA)]4 Hydrochloride [Example 74]”, the “50 mg/kg Inhibition (%)” value is given as 79%.

“TAA(TrpOrnDab)3 Hydrochloride [Example 61]”: the “50 mg/kg Inhibition (%)” value was found to be 70%.

“TETA(TrpOrn)2(OrnOrn)2 Hydrochloride [Example 47]”: the “50 mg/kg Inhibition (%)” value turned out to be 72%.

As for “TETA(LeuOrn)4 Hydrochloride [Example 75]”, the “50 mg/kg Inhibition (%)” value is 55%.

Regarding “TETA(D-PheOrn)2(OrnOrn)2 Hydrochloride [Example 46]”, the “50 mg/kg Inhibition (%)” value worked out at 62%.

In the case of “TETA(PheOrn)2[Orn(Orn)Orn]2 Hydrochloride [Example 43]”, the “50 mg/kg Inhibition (%)” value is 60%.

SPM(Orn)4 Hydrochloride [Example 9]: the “Inhibitory Rate (%)” value is listed as 30%.

As for “TETA(PheOrn)4 Hydrochloride [Example 57]”, the “50 mg/kg Inhibition (%)” value came out at 69%.

For the substance “TETA(OrnOrn)2(ChaOrn)2 Hydrochloride [Example 58]”, the “50 mg/kg Inhibition (%)” value is 79%.
